Assay: Mouse pharmacokinetic study of oral GE with and without ketoconazole, plasma with and without β-glucuronidase treatment
Format: in vivo, male mice (C57BL6J)
Details: for Concentration Ratio (Total/Free) of GE Phenolics: GE administered group; for Concentration Ratio (Total/Free) of GE Phenolics / concentration at 0 h / concentration at 0.087 h / concentration at 0.167 h / concentration at 0.25 h / concentration at 0.5 h / concentration at 1 h / concentration at 2 h / concentration at 3 h / concentration at 4 h / concentration at 6 h / concentration at 8 h / concentration at 12 h: mouse plasma; for AUC(0-t) / Cmax / Tmax / concentration at 0 h / concentration at 0.087 h / concentration at 0.167 h / concentration at 0.25 h / concentration at 0.5 h / concentration at 1 h / concentration at 2 h / concentration at 3 h / concentration at 4 h / concentration at 6 h / concentration at 8 h / concentration at 12 h: male, C57BL6J; for AUC(0-t) / Cmax / Tmax: mouse, plasma, po, 250 mg/kg
Method: A solution formulation of GE was prepared by using 5% ethanol, 5% Tween 80, 40% polyethylene glycol, and 50% corn oil. The dose volume was 10 mL/kg and the dose administered was 250 mg/kg GE.
Pharmacokinetic study in male mice (C57BL6J, Harlan Laboratories, Indianapolis, IN, USA) was run with 36 animals in each group at a GE dose of 250 mg/kg with a dose volume of 10 mL/kg. One group was given GE alone and in the second group GE was co-administered with KTZ (50 mg/kg). A terminal sampling design was used to collect blood samples at 0 (pre-dose), 0.08, 0.16, 0.25, 0.5, 1, 2, 3, 4, 6, 8, and 12 h. At each time, 1 mL of blood was collected in ethylenediaminetetraacetic acid di-potassium salt (K2EDTA) tubes (BD Biosciences, Franklin Lakes, NJ, USA). Plasma was separated by centrifugation of samples at 4000 rpm for 10 min and stored below −60 °C till bioanalysis. All experiments were performed with approval from the Institutional Animal Care and Use Committee (IACUC, approval code: A14031). All animals were acclimatized for five days before dosing in the experimental area. Food and water was provided ad libitum throughout the study period. Animals were marked and housed (three per cage, n = 36 per group) in polypropylene cages and maintained in controlled environmental conditions with 12 h light and dark cycles. The temperature and humidity of the room was maintained between 22 ± 3 °C and 30% to 50%, respectively, and approximately 10–12 fresh air change cycles per hour.
To confirm the presence of GE glucuronide conjugates, plasma (100 μL) was treated with βgd (20 μL, 500 units) and incubated at 37 °C for 1 h. Each sample was analyzed twice with and without β-gd treatment. Samples without gde treatment were diluted with 20 μL of buffer. Total (conjugated + free) and free ginger phenolics data were reported following bioanalysis.
All in vitro and in vivo samples were processed by protein precipitation method. An aliquot (100 μL) of the sample was spiked with 200 μL of acetonitrile containing dihydrocapsaicin as internal standard (IS) and vortex mixed for 3 min. The tubes were centrifuged at 12,000 rpm for 10 min and an aliquot of supernatant was transferred into autosampler vials for analysis. The stock solutions of 6G, 8G, 10G, and 6S were prepared in ACN/water (70:30) at 1 mg/mL. A calibration curve (CC) range of 2–2000 ng/mL was employed for the quantification of analytes and IS concentration was 150 ng/mL for each analysis. The CC consisted of blank, blank with IS and seven non-zero calibration standards. The calibration standards were within ±15% of the nominal concentration and lower limit of quantification was within ±20% of nominal. All samples were analyzed using liquid chromatography tandem mass spectrometry (LC-MS/MS) method (Agilent 6410 series, Santa Clara, CA, USA). A positive ionization mode with multiple reaction monitoring (MRM, m/z Q1/Q3) of 6G (m/z 277.1/177.1, retention time (RT) 2.0 min), 8G (m/z 305.1/177.1, RT 4.0 min), 10G (m/z 333.1/177.1, RT 7.7 min), 6S (m/z 277.1/137.1, RT 5.1 min), and IS (m/z 308.2/137.1, RT 3.4 min) was employed. The ion spray voltage was set at 3500 V, ionization temperature was set to 300 °C and drying gas flow rate was 10 L/min. Data acquisition and quantitation were performed using Mass Hunter software (Agilent Technologies, Wilmington, DE, USA). Separation was achieved using HP1100 series LC (Agilent Technologies) with an Agilent Zorbax reversed-phase (SB-C18, 2.1 × 50 mm, 5.0 μm) column. A gradient method was employed to separate the individual GE phenolics using mobile phase A (0.1% formic acid in water) and mobile phase B (Acetonitrile). The gradient elution method with 50% B at 0 min, 90% B at 5 min, held for 2.1 min, back to 50% B at 7.1 min with a flow rate of 0.2 mL/min. An injection volume of 2 μL was used for analysis. […]

[1] = +KTZ +βgd, reference GE group co-administered with KTZ untreated with βgd
[2] = +KTZ +βgd, reference GE group untreated with βgd
[3] = +KTZ −βgd, reference GE group untreated with βgd
[4] = 250 mg/kg GE + 50 mg/kg KTZ oral, +KTZ −βgd
[5] = 250 mg/kg GE oral, 0.087 h, −βgd
[6] = 250 mg/kg GE oral, 0.167 h, −βgd
[7] = 250 mg/kg GE oral, 0.25 h, −βgd
[8] = 250 mg/kg GE with 50 mg/kg ketoconazole oral, 0 h, −βgd
[9] = 250 mg/kg GE with 50 mg/kg ketoconazole oral, 0.087 h, −βgd
[10] = 250 mg/kg GE with 50 mg/kg ketoconazole oral, 0.167 h, −βgd
[11] = 250 mg/kg GE with 50 mg/kg ketoconazole oral, 0.25 h, −βgd
[12] = 250 mg/kg GE with 50 mg/kg ketoconazole oral, 0.5 h, −βgd
[13] = 250 mg/kg GE with 50 mg/kg ketoconazole oral, 1 h, −βgd
[14] = 250 mg/kg GE with 50 mg/kg ketoconazole oral, 2 h, −βgd
[15] = 250 mg/kg GE with 50 mg/kg ketoconazole oral, 3 h, −βgd
[16] = 250 mg/kg GE with 50 mg/kg ketoconazole oral, 4 h, −βgd
[17] = 250 mg/kg GE with 50 mg/kg ketoconazole oral, 6 h, −βgd
[18] = 250 mg/kg GE with 50 mg/kg ketoconazole oral, 8 h, −βgd
[19] = 250 mg/kg GE with 50 mg/kg ketoconazole oral, 12 h, −βgd

## CCCCC[C@H](O)CC(=O)CCc1ccc(O)c(OC)c1 [6G, 6-gingerol]
[1]
  AUClast Ratio: 63
[2]
  AUClast Ratio: 498
[3]
  AUClast Ratio: 8
0 h
  Concentration Ratio (Total/Free) of GE Phenolics: 0
0.087 h
  Concentration Ratio (Total/Free) of GE Phenolics: 0
0.167 h
  Concentration Ratio (Total/Free) of GE Phenolics: 0
0.25 h
  Concentration Ratio (Total/Free) of GE Phenolics: 3659
0.5 h
  Concentration Ratio (Total/Free) of GE Phenolics: 8723
1 h
  Concentration Ratio (Total/Free) of GE Phenolics: 0
2 h
  Concentration Ratio (Total/Free) of GE Phenolics: 53
3 h
  Concentration Ratio (Total/Free) of GE Phenolics: 290
4 h
  Concentration Ratio (Total/Free) of GE Phenolics: 491
6 h
  Concentration Ratio (Total/Free) of GE Phenolics: 391
8 h
  Concentration Ratio (Total/Free) of GE Phenolics: 0
12 h
  Concentration Ratio (Total/Free) of GE Phenolics: 0
250 mg/kg GE oral, −βgd
  AUC(0-t): 37.7 ng·h/mL
  Cmax: 27.2 ng/mL
  Tmax: 120 min
[4]
  AUC(0-t): 300 ng·h/mL
  Cmax: 257 ng/mL
  Tmax: 30 min
250 mg/kg GE oral, 0 h, −βgd
  concentration at 0 h: 0 ng/mL
[5]
  concentration at 0.087 h: 0 ng/mL
[6]
  concentration at 0.167 h: 0.11 ± 0.08 ng/mL
[7]
  concentration at 0.25 h: 2.25 ± 1.73 ng/mL
250 mg/kg GE oral, 0.5 h, −βgd
  concentration at 0.5 h: 1.79 ± 1.82 ng/mL
250 mg/kg GE oral, 1 h, −βgd
  concentration at 1 h: 1.04 ± 0.79 ng/mL
250 mg/kg GE oral, 2 h, −βgd
  concentration at 2 h: 27.2 ± 38.4 ng/mL
250 mg/kg GE oral, 3 h, −βgd
  concentration at 3 h: 2.45 ± 1.73 ng/mL
250 mg/kg GE oral, 4 h, −βgd
  concentration at 4 h: 0.82 ± 1.16 ng/mL
250 mg/kg GE oral, 6 h, −βgd
  concentration at 6 h: 3.22 ± 4.03 ng/mL
250 mg/kg GE oral, 8 h, −βgd
  concentration at 8 h: 0.77 ± 0.57 ng/mL
250 mg/kg GE oral, 12 h, −βgd
  concentration at 12 h: 0.33 ± 0.44 ng/mL
[8]
  concentration at 0 h: 0 ng/mL
[9]
  concentration at 0.087 h: 0.31 ± 0.44 ng/mL
[10]
  concentration at 0.167 h: 5.71 ± 4.25 ng/mL
[11]
  concentration at 0.25 h: 35.9 ± 44.5 ng/mL
[12]
  concentration at 0.5 h: 37900 ng/mL
[13]
  concentration at 1 h: 104 ± 110 ng/mL
[14]
  concentration at 2 h: 70900 ng/mL
[15]
  concentration at 3 h: 65.2 ± 54.3 ng/mL
[16]
  concentration at 4 h: 5.87 ± 1.18 ng/mL
[17]
  concentration at 6 h: 1.09 ± 0.93 ng/mL
[18]
  concentration at 8 h: 10.4 ± 11.1 ng/mL
[19]
  concentration at 12 h: 0.74 ± 1.05 ng/mL

## CCCCCCCCCC(O)CC(=O)CCc1ccc(O)c(OC)c1 (stereo not drawn) [10G, 10-gingerol]
[1]
  AUClast Ratio: 11
[2]
  AUClast Ratio: 32
[3]
  AUClast Ratio: 3
0 h
  Concentration Ratio (Total/Free) of GE Phenolics: 0
0.087 h
  Concentration Ratio (Total/Free) of GE Phenolics: 5
0.167 h
  Concentration Ratio (Total/Free) of GE Phenolics: 11
0.25 h
  Concentration Ratio (Total/Free) of GE Phenolics: 24
0.5 h
  Concentration Ratio (Total/Free) of GE Phenolics: 13
1 h
  Concentration Ratio (Total/Free) of GE Phenolics: 8
2 h
  Concentration Ratio (Total/Free) of GE Phenolics: 19
3 h
  Concentration Ratio (Total/Free) of GE Phenolics: 9
4 h
  Concentration Ratio (Total/Free) of GE Phenolics: 9
6 h
  Concentration Ratio (Total/Free) of GE Phenolics: 15
8 h
  Concentration Ratio (Total/Free) of GE Phenolics: 0
12 h
  Concentration Ratio (Total/Free) of GE Phenolics: 0
250 mg/kg GE oral, −βgd
  AUC(0-t): 61.8 ng·h/mL
  Cmax: 56 ng/mL
  Tmax: 30 min
[4]
  AUC(0-t): 174 ng·h/mL
  Cmax: 79 ng/mL
  Tmax: 30 min
250 mg/kg GE oral, 0 h, −βgd
  concentration at 0 h: 0 ng/mL
[5]
  concentration at 0.087 h: 43.1 ± 35.3 ng/mL
[6]
  concentration at 0.167 h: 20.7 ± 6.15 ng/mL
[7]
  concentration at 0.25 h: 25.9 ± 4.43 ng/mL
250 mg/kg GE oral, 0.5 h, −βgd
  concentration at 0.5 h: 56 ± 31.6 ng/mL
250 mg/kg GE oral, 1 h, −βgd
  concentration at 1 h: 2.21 ± 0.62 ng/mL
250 mg/kg GE oral, 2 h, −βgd
  concentration at 2 h: 4.08 ± 1.61 ng/mL
250 mg/kg GE oral, 3 h, −βgd
  concentration at 3 h: 5.25 ± 1.06 ng/mL
250 mg/kg GE oral, 4 h, −βgd
  concentration at 4 h: 3.06 ± 1.19 ng/mL
250 mg/kg GE oral, 6 h, −βgd
  concentration at 6 h: 2.43 ± 1.16 ng/mL
250 mg/kg GE oral, 8 h, −βgd
  concentration at 8 h: 5.04 ± 5.89 ng/mL
250 mg/kg GE oral, 12 h, −βgd
  concentration at 12 h: 0.62 ± 0.72 ng/mL
[8]
  concentration at 0 h: 0 ng/mL
[9]
  concentration at 0.087 h: 0 ng/mL
[10]
  concentration at 0.167 h: 5.66 ± 5.12 ng/mL
[11]
  concentration at 0.25 h: 20.5 ± 21.6 ng/mL
[12]
  concentration at 0.5 h: 14000 ng/mL
[13]
  concentration at 1 h: 54.5 ± 58.3 ng/mL
[14]
  concentration at 2 h: 27900 ng/mL
[15]
  concentration at 3 h: 45.8 ± 48.2 ng/mL
[16]
  concentration at 4 h: 6.52 ± 1.14 ng/mL
[17]
  concentration at 6 h: 8.07 ± 5.96 ng/mL
[18]
  concentration at 8 h: 3.71 ± 2.46 ng/mL
[19]
  concentration at 12 h: 2.61 ± 1.41 ng/mL
